Values joined by “and” are separate entries in the source; they are usually repeats but may differ in a detail not shown here. Equal values may be shown once.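 In this assay, cells in 96-well plates receive the compound at five concentrations for 48 hours. Endpoints are linearly interpolated between the surrounding concentrations. GI50 = concentration required for 50% inhibition of growth. TGI: concentration producing complete growth inhibition.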
Tests used:
Assay in all cases: NCI-60 cell line screen, 48 h
SK-MEL-5 melanoma = test system: SK-MEL-5 melanoma
HCT-15 colon = test system: HCT-15 colon
HOP-62 NSCLC = test system: HOP-62 NSCLC
T-47D breast = test system: T-47D breast
SN12C renal = test system: SN12C renal
DU-145 prostate = test system: DU-145 prostate
PC-3 prostate = test system: PC-3 prostate
MCF7 breast = test system: MCF7 breast
K-562 leukemia = test system: K-562 leukemia
MDA-N = test system: MDA-N
HCC-2998 colon = test system: HCC-2998 colon
M14 melanoma = test system: M14 melanoma
SF-295 CNS = test system: SF-295 CNS
A549 NSCLC = test system: A549 NSCLC
NCI/ADR-RES ovarian = test system: NCI/ADR-RES ovarian

| Compound | TGI (SK-MEL-5 melanoma) | TGI (HCT-15 colon) | TGI (HOP-62 NSCLC) | TGI (T-47D breast) | TGI (SN12C renal) | TGI (DU-145 prostate) | TGI (PC-3 prostate) | TGI (MCF7 breast) | TGI (K-562 leukemia) | TGI (MDA-N) | TGI (HCC-2998 colon) | TGI (M14 melanoma) | TGI (SF-295 CNS) | TGI (A549 NSCLC) | TGI (NCI/ADR-RES ovarian) | GI50 (M14 melanoma) | GI50 (HCT-15 colon) | GI50 (SN12C renal) | GI50 (SF-295 CNS) | GI50 (HCC-2998 colon) |
| --- | --- | --- | --- | --- | --- | --- | --- | --- | --- | --- | --- | --- | --- | --- | --- | --- | --- | --- | --- | --- |
| COC(=O)/C=C1/OC(c2ccccc2)=C(Br)C1=O | > 100 µM | > 100 µM | > 100 µM | > 100 µM | 89.2 µM | > 100 µM | > 100 µM | > 100 µM | > 100 µM | > 100 µM | > 100 µM | > 100 µM |  |  |  |  |  |  |  |  |
| COC(=O)/C=C1\C(=O)Nc2ccc(Br)cc21 | 3.2 µM | 2.81 µM | 4.61 µM | 5.6 µM | 3 µM | 4.38 µM | 2.82 µM | 3.01 µM | > 28 µM |  | 4.58 µM | 6.03 µM | 5.07 µM | 12.3 µM | 4.49 µM |  |  |  |  |  |
| O=C(O)CNc1ncc2c(n1)-c1ccccc1OC2 | > 100 µM | > 100 µM | > 100 µM |  | > 100 µM | > 100 µM | > 100 µM | > 100 µM | > 100 µM | > 100 µM |  | > 100 µM | > 100 µM | > 100 µM | > 100 µM |  |  |  |  |  |
| O=C(NC1C(=O)NC(CCc2ccccc2)NC1=O)OCc1ccccc1 (stereo not given) | > 100 µM | > 100 µM | > 100 µM | > 100 µM | > 100 µM | > 100 µM | > 100 µM | > 100 µM | > 100 µM |  |  | > 100 µM | > 100 µM | > 100 µM | > 100 µM |  |  |  |  |  |
| COc1cc2c(c(OC)c1OC)[C@@H]1CCCCC[C@@H]1CCC2=O | > 100 µM | > 100 µM | > 100 µM |  | > 100 µM |  |  |  | > 72.5 µM |  | > 100 µM | > 100 µM | > 100 µM | > 100 µM |  |  |  |  |  |  |
| O=C1C[C@@H]2[C@@H](C=CC23CCCC3)N1O | > 100 µM | > 100 µM | > 100 µM |  | > 100 µM |  |  |  | > 100 µM |  | > 100 µM | > 100 µM | > 100 µM | > 100 µM |  |  |  |  |  |  |
| O=C(O)C(Cc1ccc(O)cc1)N=Cc1nc(-c2ccccc2)oc1O (stereo not given) | > 100 µM | > 100 µM | > 100 µM |  |  |  |  |  | > 100 µM |  | > 100 µM | > 100 µM | > 100 µM | > 100 µM |  |  |  |  |  |  |
| CC(=O)/C=C1/C(=O)C(CC(C)C)=C1CC(C)C | > 100 µM | > 100 µM | > 100 µM | > 100 µM | > 100 µM | > 100 µM | > 100 µM | > 100 µM |  | > 100 µM |  | > 100 µM | > 100 µM | > 100 µM | > 100 µM |  |  |  |  |  |
| C=Cc1c(-c2ccccc2)cnc2[nH]c3ccccc3c12 | > 50 µM | > 50 µM | > 50 µM |  | > 50 µM |  |  |  | > 50 µM |  | > 50 µM | > 50 µM | > 50 µM | > 50 µM |  |  |  |  |  |  |
| COC(=O)c1ccc(C)cc1C1CN=NC12Cc1c(C)cccc1C2=O (stereo not given) | > 53.2 µM | > 100 µM | > 100 µM | 81.7 µM | > 95.6 µM | > 100 µM | > 100 µM |  | > 100 µM | > 100 µM | > 100 µM | > 100 µM | > 100 µM | > 100 µM | 81.4 µM | 25.9 µM |  |  |  |  |
| CC1=CC(=O)c2ccc3c4ccccc4n(C)c3c2C1=O | 30.5 µM | > 100 µM | > 100 µM | > 100 µM | > 100 µM | > 100 µM |  | > 100 µM | > 100 µM | 33.1 µM | > 100 µM | 64.4 µM | > 100 µM | > 100 µM | > 100 µM |  |  |  |  |  |
| CN(C)/C=N/S(=O)(=O)c1nn2c(C=O)c(-c3ccc(-c4ccccc4)cc3)nc2s1 | 3.04 µM | 7.75 µM | 22.9 µM | 5.57 µM | 3.19 µM | 6.13 µM | 5.07 µM |  |  |  | 11.7 µM | 3.12 µM | 42.5 µM | > 44.5 µM | > 86.8 µM |  |  |  |  |  |
| COc1cc(CNc2ccc(C)cc2)cc(OC)c1OC | > 100 µM | 9.02 µM and > 37.2 µM | > 100 µM |  | > 87.6 µM |  |  |  | > 42.3 µM and 25 µM |  | 1.16 µM and 2.48 µM | > 100 µM | 0.439 µM | > 100 µM |  | 0.124 µM | 0.1 µM and 0.275 µM | 0.585 µM and 3.71 µM | 0.155 µM and 0.333 µM | 0.124 µM and 0.365 µM |
| COP(=O)(OC)[C@@](O)(c1ccccc1)[C@@H](O)[C@@H](O)c1ccccc1 | > 100 µM | > 100 µM |  | > 100 µM | > 100 µM | > 100 µM | > 100 µM | 83.8 µM |  | > 100 µM |  | > 100 µM | > 100 µM | > 100 µM | > 100 µM |  |  |  |  |  |
| CCc1n[nH]c(=O)n1N | > 100 µM | > 100 µM | > 100 µM | > 100 µM | > 100 µM | > 100 µM | > 100 µM | > 100 µM | > 100 µM |  | > 100 µM | > 100 µM | > 100 µM | > 100 µM | > 100 µM |  |  |  |  |  |
| COc1cc(C(C)c2cc3c(cc2OCCCCCOc2cc4c(cc2C(C)c2cc(OC)c(OC)c(OC)c2)OCO4)OCO3)cc(OC)c1OC (stereo not given) | > 100 µM | > 100 µM | > 100 µM |  | > 100 µM |  |  |  | > 100 µM |  | > 100 µM | > 100 µM | > 100 µM | > 100 µM |  |  |  |  |  |  |
| C1=C(c2ccccc2)NC2=N[C@H]3CCCC[C@@H]3N2C1c1ccccc1 (stereo not given in full) | 27.9 µM | 23.5 µM |  | 35.5 µM |  | 29.6 µM | 23.9 µM |  | 72.2 µM | 29 µM | 28.4 µM | 25.5 µM | 25.7 µM |  | 28.7 µM |  |  |  |  |  |
| COc1c(O)ccc(/C=N/NC(=S)NCOCCOC(C)=O)c1OC | > 100 µM | > 100 µM | > 100 µM |  | > 100 µM |  |  |  | > 100 µM |  | > 100 µM | > 100 µM | > 100 µM | > 100 µM |  |  |  |  |  |  |
